Experiments:
Details in all cases: 48 h
SEM cells [1] = assay: cell viability relative to DMSO control; higher = less cytotoxic
Method in brief: (§1)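 Leukemia cells (NOMO1 or SEM, 500 cells/well; P12-Ichikawa, 1000 cells/well) were seeded in 5 μl in 1536-well plates after at least four passages of adaptation to each medium. They received library compounds in DMSO by pin dosing, 11 threefold points from 47 μM to 0.79 nM. Luminescence with CellTiter-Glo One was read after 48 h at 37°C. Viability is stated per plate relative to DMSO wells, with cell-free wells as background.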

P12-Ichikawa [2] = assay: AUC of viability dose-response curve (% viability x log10 dose units); higher = less sensitive
Method in brief: (§2)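 Library compounds in DMSO were applied for 48 h at 37°C at 11 threefold doses (47 μM to 0.79 nM) to medium-adapted leukemia cells in 1536-well plates holding 500 or 1000 cells/well. Luminescence from CellTiter-Glo One was normalised plate by plate against DMSO and cell-free wells. Area under the curve came from trapezoidal integration of a log-logistic fit, after scaling curves that rose above full viability and discarding those that failed quality control. The fit had four parameters and used log10 doses.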

NOMO1 [3] = assay: as above
Method in brief: as §2

SEM cells [4] = assay: as above
Method in brief: as §2

P12-Ichikawa [5] = assay: cell viability relative to DMSO control; higher = less cytotoxic
Method in brief: as §1

NOMO1 [6] = assay: as above
Method in brief: as §1

CCNC(=O)Nc1ccc2ncc(Nc3ccc(C)cc3)nc2n1
cell viability [%], SEM cells [1]
Details | HPLM + 10% dialyzed FBS | RPMI 5 mM glucose + 10% FBS
0.000781 µM | 129 | 119
0.00234 µM | 120 | 139
0.00702 µM | 115 | 117
0.0211 µM | 113 | 119
0.0632 µM | 118 | 124
0.19 µM | 109 | 98.3
0.569 µM | 113 | 124
1.71 µM | 108 | 114
5.12 µM | 110 | 93.3
15.4 µM | 68.1 | 59.3
46.1 µM | 34.8 | 21.2

AUC of viability dose-response curve
Details | NOMO1 [3] | P12-Ichikawa [2] | SEM cells [4]
HPLM + 10% dialyzed FBS | 430 | 459 | 437
RPMI 5 mM glucose + 10% FBS | 453 | 465 | 418
RPMI 5 mM glucose + 10% dialyzed FBS | 452 | 464 | 402

CN1CCN(CCOc2cc(OC3CCOCC3)c3c(Nc4c(Cl)ccc5c4OCO5)ncnc3c2)CC1
cell viability [%]
Details | NOMO1 [6] | P12-Ichikawa [5] | SEM cells [1]
HPLM + 10% dialyzed FBS, 0.000781 µM | 134 | 121 | 106
HPLM + 10% dialyzed FBS, 0.00234 µM | 119 | 125 | 119
HPLM + 10% dialyzed FBS, 0.00702 µM | 125 | 130 | 115
HPLM + 10% dialyzed FBS, 0.0211 µM | 131 | 134 | 118
HPLM + 10% dialyzed FBS, 0.0632 µM | 125 | 130 | 122
HPLM + 10% dialyzed FBS, 0.19 µM | 123 | 128 | 126
HPLM + 10% dialyzed FBS, 0.569 µM | 134 | 136 | 113
HPLM + 10% dialyzed FBS, 1.71 µM | 123 | 124 | 116
HPLM + 10% dialyzed FBS, 5.12 µM | 89.4 | 101 | 78.4
HPLM + 10% dialyzed FBS, 15.4 µM | 60.1 | 32.3 | 61.6
HPLM + 10% dialyzed FBS, 46.1 µM | 71.4 | 20 | 30.3
RPMI 5 mM glucose + 10% FBS, 0.000781 µM | – | – | 121
RPMI 5 mM glucose + 10% FBS, 0.00234 µM | – | – | 120
RPMI 5 mM glucose + 10% FBS, 0.00702 µM | – | – | 128
RPMI 5 mM glucose + 10% FBS, 0.0211 µM | – | – | 110
RPMI 5 mM glucose + 10% FBS, 0.0632 µM | – | – | 128
RPMI 5 mM glucose + 10% FBS, 0.19 µM | – | – | 109
RPMI 5 mM glucose + 10% FBS, 0.569 µM | – | – | 85.5
RPMI 5 mM glucose + 10% FBS, 1.71 µM | – | – | 109
RPMI 5 mM glucose + 10% FBS, 5.12 µM | – | – | 62.9
RPMI 5 mM glucose + 10% FBS, 15.4 µM | – | – | 34.3
RPMI 5 mM glucose + 10% FBS, 46.1 µM | – | – | 19.7

AUC of viability dose-response curve
Details | NOMO1 [3] | P12-Ichikawa [2] | SEM cells [4]
HPLM + 10% dialyzed FBS | 428 | 410 | 416
RPMI 5 mM glucose + 10% FBS | 463 | 446 | 378
RPMI 5 mM glucose + 10% dialyzed FBS | 459 | 429 | 391

CNC(=O)N1\N=C(\C2=CC=C(N)C=C2)C3=CC4=C(OCO4)C=C3CC1C (stereo not drawn)
cell viability [%], SEM cells [1]
Details | HPLM + 10% dialyzed FBS | RPMI 5 mM glucose + 10% FBS
0.000781 µM | 111 | 120
0.00234 µM | 113 | 134
0.00702 µM | 130 | 124
0.0211 µM | 121 | 145
0.0632 µM | 142 | 138
0.19 µM | 133 | 134
0.569 µM | 122 | 132
1.71 µM | 129 | 129
5.12 µM | 98.3 | 79.9
15.4 µM | 43.8 | 47.1
46.1 µM | 8.25 | 8.13

AUC of viability dose-response curve
Details | NOMO1 [3] | P12-Ichikawa [2] | SEM cells [4]
HPLM + 10% dialyzed FBS | 440 | 449 | 413
RPMI 5 mM glucose + 10% FBS | 451 | 447 | 400
RPMI 5 mM glucose + 10% dialyzed FBS | 449 | 449 | 392

Cc1cccc(/C=N/Nc2cc(N3CCOCC3)nc(OCCc3ccccn3)n2)c1
cell viability [%]
Details | NOMO1 [6] | P12-Ichikawa [5] | SEM cells [1]
HPLM + 10% dialyzed FBS, 0.000781 µM | 101 | 95.8 | 99.3
HPLM + 10% dialyzed FBS, 0.00234 µM | 106 | 102 | 93.8
HPLM + 10% dialyzed FBS, 0.00702 µM | 111 | 92 | 102
HPLM + 10% dialyzed FBS, 0.0211 µM | 107 | 104 | 100
HPLM + 10% dialyzed FBS, 0.0632 µM | 90.2 | 103 | 111
HPLM + 10% dialyzed FBS, 0.19 µM | 97.9 | 96.7 | 87
HPLM + 10% dialyzed FBS, 0.569 µM | 94.5 | 89.5 | 104
HPLM + 10% dialyzed FBS, 1.71 µM | 77.5 | 79 | 72.8
HPLM + 10% dialyzed FBS, 5.12 µM | 41.5 | 67.6 | 82.7
HPLM + 10% dialyzed FBS, 15.4 µM | 34.4 | 42 | 52.9
HPLM + 10% dialyzed FBS, 46.1 µM | 24.3 | 28.4 | 31.8
RPMI 5 mM glucose + 10% FBS, 0.000781 µM | 98.8 | 92 | 97.8
RPMI 5 mM glucose + 10% FBS, 0.00234 µM | 107 | 97.5 | 98.9
RPMI 5 mM glucose + 10% FBS, 0.00702 µM | 97.9 | 92.7 | 106
RPMI 5 mM glucose + 10% FBS, 0.0211 µM | 99.5 | 99 | 109
RPMI 5 mM glucose + 10% FBS, 0.0632 µM | 87.6 | 100 | 105
RPMI 5 mM glucose + 10% FBS, 0.19 µM | 97 | 96.8 | 96.1
RPMI 5 mM glucose + 10% FBS, 0.569 µM | 77.2 | 79.5 | 95.4
RPMI 5 mM glucose + 10% FBS, 1.71 µM | 68.2 | 64.3 | 85.9
RPMI 5 mM glucose + 10% FBS, 5.12 µM | 19.3 | 53.2 | 66.9
RPMI 5 mM glucose + 10% FBS, 15.4 µM | 22.6 | 45 | 34.9
RPMI 5 mM glucose + 10% FBS, 46.1 µM | 21.4 | 26.4 | 13.4
RPMI 5 mM glucose + 10% dialyzed FBS, 0.000781 µM | 99.8 | 90 | 104
RPMI 5 mM glucose + 10% dialyzed FBS, 0.00234 µM | 93 | 89.4 | 100
RPMI 5 mM glucose + 10% dialyzed FBS, 0.00702 µM | 90.9 | 88.5 | 101
RPMI 5 mM glucose + 10% dialyzed FBS, 0.0211 µM | 98.6 | 89.5 | 96.8
RPMI 5 mM glucose + 10% dialyzed FBS, 0.0632 µM | 95.4 | 89.8 | 90.3
RPMI 5 mM glucose + 10% dialyzed FBS, 0.19 µM | 85.8 | 80.6 | 81.3
RPMI 5 mM glucose + 10% dialyzed FBS, 0.569 µM | 75.9 | 71.5 | 70.8
RPMI 5 mM glucose + 10% dialyzed FBS, 1.71 µM | 38.7 | 60.7 | 73.8
RPMI 5 mM glucose + 10% dialyzed FBS, 5.12 µM | 15.1 | 52.3 | 54.9
RPMI 5 mM glucose + 10% dialyzed FBS, 15.4 µM | 18.8 | 40 | 35.3
RPMI 5 mM glucose + 10% dialyzed FBS, 46.1 µM | 17.5 | 24.9 | 7.57

AUC of viability dose-response curve
Details | NOMO1 [3] | P12-Ichikawa [2] | SEM cells [4]
HPLM + 10% dialyzed FBS | 382 | 399 | 415
RPMI 5 mM glucose + 10% FBS | 352 | 373 | 396
RPMI 5 mM glucose + 10% dialyzed FBS | 322 | 343 | 358
